Results taken from patent US12178838B2, “Synthetic neuromodulatory peptides” (Lactocore, Inc., priority 2019, dated 2024).
Where two headings read alike, the source gives them in different places.

Experiments:
[1] = target: FQSE (SEQ ID NO:10)-specific binding sites in the rat cortex; assay: Radioligand analysis with [3H] FQSE on rat cortex membranes
Protocol: After decapitation, the tissues were immediately frozen in liquid nitrogen and stored in a low-temperature refrigerator at −80° C. On the day of the experiment, brain tissue (cortex, about 300 mg) was homogenized in a Teflon-glass Potter homogenizer 1:25 W:V in the buffer (50 mM Tris-HCl, pH 7.4). The homogenate was centrifuged at 40,000 g for 20 min. The obtained precipitate was homogenized in a buffer (50 mM Tris-HCl; pH=7.4) and centrifuged again at 40,000 g for 20 min. A similar procedure was performed again. The precipitate was resuspended in 15 ml of the same buffer and used for the radioligand analysis.
The incubation mixture (final volume 0.5 ml) contained 50 μl […]
At the end of the incubation, the samples were filtered through Ge/C glass fiber filters (Whatman) previously moistened with 0.3% polyethyleneimine for 2 hours at room temperature. Each tube was washed twice with cold buffer, then the filters were washed twice with the same volume of buffer.
The filters were air-dried and transferred to scintillation vials. Filters were poured with 5 ml of toluene-based scintillation liquid (4 g PPO, 0.2 g POPOP per liter of toluene).
To construct the curves of the radioactive ligand's displacement each concentration of the test substance was taken in 3 replications. […]

BALB/C mice [2] = assay: Marble Burying test in mice; type: in vivo; conditions: ip; Diazepam 0.75 mg/kg; FQSE 5 mg/kg; 30 minutes
Protocol: (§1) After an adaptation period, the test substance was intraperitoneally injected into mice. Behavioral parameters were measured in 30 minutes after injection. The tests were administered as follows: day 1—the Open field test, day 3—the Elevated plus maze test, day 5—the Marble burying test, days 12-13—the Porsolt swim (two-day modification) test.
In the marble burying test, the installation is a standard T3 cage (19 cm×29 cm×13 cm) filled with bedding material. The standard glass marbles (15 mm in diameter, weight 5.2 g, arbitrary color) were used for the test. Twenty marbles were evenly spaced on the surface in 4 rows, 5 pieces each. The animal was placed in the testing cage for 30 minutes. At the end of the period, after the animal was carefully removed, the number of marbles that were more than two-thirds covered with bedding material was counted.
(§2) All substances were injected intraperitoneally in a volume of 10 μl of solution per 1 gram of animal weight 30 minutes prior to behavioral testing.

BALB/C mice [3] = assay: Open Field test in mice; type: in vivo; conditions: Diazepam 0.75 mg/kg
Protocol: as §1
In the Open field test, the installation is an arena with a diameter of 63 cm, illuminated by bright light (500 lux) (OpenScience, Russia). The following parameters were measured during 5-minute experiment: a total distance (cm), a time of motion (if the speed is more than 5 cm/s), an immobility (if the speed is less than 0.2 cm/sec), a mean and maximum velocity, and a number of episodes of motor activity and “freezing”. The same set of parameters, as well as latent period and time duration of stay, were recorded for the central sector of the arena. Defecations and rearing (animal raise upright on hind limbs) were assessed visually (File and Wardill (1975) Validity of head-dipping as a measure of exploration in a modified hole-board. Psychopharmacol., 44, 53-59). The test is designed to measure the level of motor and exploratory activity.
as §2

[4] = system: Wistar rats after chronic unpredictable mild stress; assay: CUMS model: Novelty Suppressed Feeding Test; type: in vivo
Protocol: During stress, the animals were placed in individual cells and exposed to stressful conditions each day for 26 days. Two stressors were used daily, applied in the following order: • Day 1. 10 am-6 pm, rats were placed in a cold room for an hour. From 6 PM to 10 am the lights were turned on and off every 2 hours. • Day 2. 10 am-6 pm, cage tilted to 45°. From 6 PM to 10 am water deprivation. • Day 3. 10 am-6 pm, stroboscopic light. From 6 PM to 10 am the light was left on overnight. • Day 4. 10 am-6 pm, wet bedding. From 6 PM to 10 am the animals were put in a small mouse cage. • Day 5. 10 am-6 pm, no bedding. From 6 PM to 10 am the lights were turned on and off every 2 hours. • Day 6. 10 am-6 pm, a new rat was placed in the cage (6-month-old). From 6 PM to 10 am the light was left on overnight. • Day 7. 10 am-6 pm, white noise. From 6 PM to 10 am a stroboscopic light was turned on at night. • Day 8-26. Repetition of previously used stressors in the specified sequence.
Experimental substances were administered daily starting from the 58-59 day of the experiment. The administration took place 30 minutes before the start of behavioral testing. On days when there were no tests, the substances were administered in the morning.
To assess anxiety and food motivation, a test for eating behavior in a new environment was used. […] The time to start eating and the duration of consumption were recorded. […]

With CN1C(=O)CN=C(c2ccccc2)c2cc(Cl)ccc21 [Diazepam] as the molecule, how does the IC50 ([1]; read-out: IC50 after different incubation times: 50 min) read?
The IC50 was 52 ± 0.3 µM.

And the IC50 ([1]; read-out: IC50 after different incubation times: 1 h)?
The IC50 was 89 ± 0.3 µM.

What about the IC50 ([1]; read-out: IC50 after different incubation times: 1 h 30 min) of the same molecule?
Its IC50 is 95 ± 0.2 µM.

What about the IC50 ([1]; read-out: IC50 for the [3H]-FQSE binding sites in rat cortex membranes) of the same molecule?
Its IC50 is ~100 µM.

What about the “number of marbles buried” value (BALB/C mice [2]) of the same molecule?
The value was 1.2±0.39.

And the total distance (BALB/C mice [3]; ip 30 min before, FQSE 1 mg/kg)?
The total distance was 2542.2±179.77 cm.

What about the “time the animals spent in the center” value (BALB/C mice [3]; ip) of the same molecule?
Its value is “not significantly different”.

And the “number of center entries” value (BALB/C mice [3]; ip, FQSE 1 mg/kg)?
Its value is “not significantly different”.

And the number of rearings (BALB/C mice [3]; ip, FQSE 1 mg/kg)?
The number of rearings was 10.8±2.1.

What about the “result obtained in NSFT (11 administrations)” value ([4]; CUMS, FQSE 0.5 mg/kg, Diazepam) of the same molecule?
Its value is “anxiolytic effect”.

And the “latency to start eating” value ([4]; FQSE 0.5 mg/kg i.n., diazepam 0.5 mg/kg i.p., 11 days)?
Its value is “significant decrease in latency”.
